In patent US6689773B2, “Uracil substituted phenyl sulfamoyl carboxamides” (BASF Aktiengesellschaft, priority 2000, dated 2004):

Legend:
Type in all cases: in vivo
[1] = test system: ABUTH, Velvetleaf, Abutilon theophrasti, Medic.; assay: Postemergence herbicidal evaluation (Example 147); details: rating scale 0-9, two to three weeks after treatment
Procedure, shortened: (§1)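 Seedlings grown about two weeks, then sprayed (nozzle at 40 psi) with compound in 80/20 acetone/water plus 1.0% methylated seed oil at about 0.016 to 0.032 kg/ha. Kept in greenhouse; visual injury rated 0-9 versus untreated control two to three weeks after treatment; replicate tests averaged.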

[2] = test system: ALOMY, Blackgrass, Alopecurus myosuroides; assay: Postemergence herbicidal evaluation (Example 147); details: rating scale 0-9, two to three weeks after treatment
Procedure, shortened: as §1

[3] = test system: AMBEL, Ragweed, Common, Ambrosia artemiisifolia, L.; assay: Postemergence herbicidal evaluation (Example 147); details: rating scale 0-9, two to three weeks after treatment
Procedure, shortened: as §1

[4] = test system: CHEAL, Lambsquarters, Chenopodium album, L. Common; assay: Postemergence herbicidal evaluation (Example 147); details: rating scale 0-9, two to three weeks after treatment
Procedure, shortened: as §1

[5] = test system: DIGSA, Crabgrass, (Hairy) L, Digitaria sanguinalis, (L)Scop; assay: Postemergence herbicidal evaluation (Example 147); details: rating scale 0-9, two to three weeks after treatment
Procedure, shortened: as §1

[6] = test system: ECHCG, Barnyardgrass, Echinochloa crusgalli, (L.)Beau; assay: Postemergence herbicidal evaluation (Example 147); details: rating scale 0-9, two to three weeks after treatment
Procedure, shortened: as §1

[7] = test system: GLXMA, Soybean, Glycine max, (L.) Merr.; assay: Postemergence herbicidal evaluation (Example 147); details: rating scale 0-9, two to three weeks after treatment
Procedure, shortened: as §1

[8] = test system: IPOHE, Morningglory, Ivyleaf, Ipomoea hederacea, (L)Jacq.; assay: Postemergence herbicidal evaluation (Example 147); details: rating scale 0-9, two to three weeks after treatment
Procedure, shortened: as §1

[9] = test system: SETVI, Green foxtail, Setaria viridis, (L.)Beau; assay: Postemergence herbicidal evaluation (Example 147); details: rating scale 0-9, two to three weeks after treatment
Procedure, shortened: as §1

[10] = test system: TRZAW, Winter wheat, Tritium Aestivum, L. (Winter); assay: Postemergence herbicidal evaluation (Example 147); details: rating scale 0-9, two to three weeks after treatment
Procedure, shortened: as §1

[11] = test system: XANST, Cocklebur, Xanthium strumariam; assay: Postemergence herbicidal evaluation (Example 147); details: rating scale 0-9, two to three weeks after treatment
Procedure, shortened: as §1

[12] = test system: ZEAMX, Field corn, Zea mays L.; assay: Postemergence herbicidal evaluation (Example 147); details: rating scale 0-9, two to three weeks after treatment
Procedure, shortened: as §1

[13] = test system: ABUTH, Velvetleaf, Abutilon theophrasti, Medic.; assay: Preemergence herbicidal evaluation (Example 148); details: rating scale 0-9, two to four weeks after treatment
Procedure, shortened: (§2)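 Greenhouse cups of separately sown species were treated pre-emergence at about 0.125–0.250 kg/ha. Evaluation was visual, 2–4 weeks after spraying, with averaged values for repeated tests.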

[14] = test system: ALOMY, Blackgrass, Alopecurus myosuroides; assay: Preemergence herbicidal evaluation (Example 148); details: rating scale 0-9, two to four weeks after treatment
Procedure, shortened: as §2

[15] = test system: AMBEL, Ragweed, Common, Ambrosia artemiisifolia, L.; assay: Preemergence herbicidal evaluation (Example 148); details: rating scale 0-9, two to four weeks after treatment
Procedure, shortened: as §2

[16] = test system: CHEAL, Lambsquarters, Chenopodium album, L. Common; assay: Preemergence herbicidal evaluation (Example 148); details: rating scale 0-9, two to four weeks after treatment
Procedure, shortened: as §2

[17] = test system: DIGSA, Crabgrass, (Hairy) L, Digitaria sanguinalis, (L)Scop; assay: Preemergence herbicidal evaluation (Example 148); details: rating scale 0-9, two to four weeks after treatment
Procedure, shortened: as §2

[18] = test system: ECHCG, Barnyardgrass, Echinochloa crusgalli, (L.)Beau; assay: Preemergence herbicidal evaluation (Example 148); details: rating scale 0-9, two to four weeks after treatment
Procedure, shortened: as §2

[19] = test system: GLXMA, Soybean, Glycine max, (L.) Merr.; assay: Preemergence herbicidal evaluation (Example 148); details: rating scale 0-9, two to four weeks after treatment
Procedure, shortened: as §2

[20] = test system: IPOHE, Morningglory, Ivyleaf, Ipomoea hederacea, (L)Jacq.; assay: Preemergence herbicidal evaluation (Example 148); details: rating scale 0-9, two to four weeks after treatment
Procedure, shortened: as §2

[21] = test system: SETVI, Green foxtail, Setaria viridis, (L.)Beau; assay: Preemergence herbicidal evaluation (Example 148); details: rating scale 0-9, two to four weeks after treatment
Procedure, shortened: as §2

[22] = test system: TRZAW, Winter wheat, Tritium Aestivum, L. (Winter); assay: Preemergence herbicidal evaluation (Example 148); details: rating scale 0-9, two to four weeks after treatment
Procedure, shortened: as §2

[23] = test system: XANST, Cocklebur, Xanthium strumariam; assay: Preemergence herbicidal evaluation (Example 148); details: rating scale 0-9, two to four weeks after treatment
Procedure, shortened: as §2

[24] = test system: ZEAMX, Field corn, Zea mays L.; assay: Preemergence herbicidal evaluation (Example 148); details: rating scale 0-9, two to four weeks after treatment
Procedure, shortened: as §2

CN(Cc1ccccc1)S(=O)(=O)NC(=O)c1cc(-n2c(=O)cc(C(F)(F)F)n(C)c2=O)c(F)cc1Cl [Example 61]
Postemergence herbicidal rating ABUTH ([1]; rate 0.016 kg/ha): 9.0
Postemergence herbicidal rating ABUTH ([1]; rate 0.032 kg/ha): 9.0
Postemergence herbicidal rating ALMOY ([2]; rate 0.016 kg/ha): 1.0
Postemergence herbicidal rating ALMOY ([2]; rate 0.032 kg/ha): 1.0
Postemergence herbicidal rating AMBEL ([3]; rate 0.016 kg/ha): 9.0
Postemergence herbicidal rating AMBEL ([3]; rate 0.032 kg/ha): 9.0
Postemergence herbicidal rating CHEAL ([4]; rate 0.016 kg/ha): 9.0
Postemergence herbicidal rating CHEAL ([4]; rate 0.032 kg/ha): 8.0
Postemergence herbicidal rating DIGSA ([5]; rate 0.016 kg/ha): 7.0
Postemergence herbicidal rating DIGSA ([5]; rate 0.032 kg/ha): 6.0
Postemergence herbicidal rating ECHCG ([6]; rate 0.016 kg/ha): 7.0
Postemergence herbicidal rating ECHCG ([6]; rate 0.032 kg/ha): 8.0
Postemergence herbicidal rating GLXMA ([7]; rate 0.016 kg/ha): 8.5
Postemergence herbicidal rating GLXMA ([7]; rate 0.032 kg/ha): 8.5
Postemergence herbicidal rating IPOHE ([8]; rate 0.016 kg/ha): 8.0
Postemergence herbicidal rating IPOHE ([8]; rate 0.032 kg/ha): 9.0
Postemergence herbicidal rating SETVI ([9]; rate 0.016 kg/ha): 7.0
Postemergence herbicidal rating SETVI ([9]; rate 0.032 kg/ha): 9.0
Postemergence herbicidal rating TRZAW ([10]; rate 0.016 kg/ha): 6.0
Postemergence herbicidal rating TRZAW ([10]; rate 0.032 kg/ha): 6.5
Postemergence herbicidal rating XANST ([11]; rate 0.016 kg/ha): 9.0
Postemergence herbicidal rating XANST ([11]; rate 0.032 kg/ha): 9.0
Postemergence herbicidal rating ZEAMX ([12]; rate 0.016 kg/ha): 7.5
Postemergence herbicidal rating ZEAMX ([12]; rate 0.032 kg/ha): 7.5
Preemergence herbicidal rating ABUTH ([13]; rate 0.125 kg/ha): 9.0
Preemergence herbicidal rating ABUTH ([13]; rate 0.25 kg/ha): 9.0
Preemergence herbicidal rating ALMOY ([14]; rate 0.125 kg/ha): 0.0
Preemergence herbicidal rating ALMOY ([14]; rate 0.25 kg/ha): 0.0
Preemergence herbicidal rating AMBEL ([15]; rate 0.125 kg/ha): 9.0
Preemergence herbicidal rating AMBEL ([15]; rate 0.25 kg/ha): 9.0
Preemergence herbicidal rating CHEAL ([16]; rate 0.125 kg/ha): 9.0
Preemergence herbicidal rating CHEAL ([16]; rate 0.25 kg/ha): 9.0
Preemergence herbicidal rating DIGSA ([17]; rate 0.125 kg/ha): 6.0
Preemergence herbicidal rating DIGSA ([17]; rate 0.25 kg/ha): 9.0
Preemergence herbicidal rating ECHCG ([18]; rate 0.125 kg/ha): 4.0
Preemergence herbicidal rating ECHCG ([18]; rate 0.25 kg/ha): 7.0
Preemergence herbicidal rating GLXMA ([19]; rate 0.125 kg/ha): 9.0
Preemergence herbicidal rating GLXMA ([19]; rate 0.25 kg/ha): 9.0
Preemergence herbicidal rating IPOHE ([20]; rate 0.125 kg/ha): 9.0
Preemergence herbicidal rating IPOHE ([20]; rate 0.25 kg/ha): 9.0
Preemergence herbicidal rating SETVI ([21]; rate 0.125 kg/ha): 3.0
Preemergence herbicidal rating SETVI ([21]; rate 0.25 kg/ha): 6.0
Preemergence herbicidal rating TRZAW ([22]; rate 0.125 kg/ha): 2.0
Preemergence herbicidal rating TRZAW ([22]; rate 0.25 kg/ha): 3.0
Preemergence herbicidal rating XANST ([23]; rate 0.125 kg/ha): 9.0
Preemergence herbicidal rating XANST ([23]; rate 0.25 kg/ha): 9.0
Preemergence herbicidal rating ZEAMX ([24]; rate 0.125 kg/ha): 2.0
Preemergence herbicidal rating ZEAMX ([24]; rate 0.25 kg/ha): 2.0

CCOC(=O)CN(C)S(N)(=O)=O [compound 53]
Postemergence herbicidal rating ABUTH ([1]; rate 0.016 kg/ha): 9.0
Postemergence herbicidal rating ABUTH ([1]; rate 0.032 kg/ha): 9.0
Postemergence herbicidal rating ALMOY ([2]; rate 0.016 kg/ha): 2.3
Postemergence herbicidal rating ALMOY ([2]; rate 0.032 kg/ha): 3.0
Postemergence herbicidal rating AMBEL ([3]; rate 0.016 kg/ha): 8.9
Postemergence herbicidal rating AMBEL ([3]; rate 0.032 kg/ha): 9.0
Postemergence herbicidal rating CHEAL ([4]; rate 0.016 kg/ha): 8.1
Postemergence herbicidal rating CHEAL ([4]; rate 0.032 kg/ha): 8.4
Postemergence herbicidal rating DIGSA ([5]; rate 0.016 kg/ha): 5.3
Postemergence herbicidal rating DIGSA ([5]; rate 0.032 kg/ha): 6.6
Postemergence herbicidal rating ECHCG ([6]; rate 0.016 kg/ha): 8.1
Postemergence herbicidal rating ECHCG ([6]; rate 0.032 kg/ha): 8.8
Postemergence herbicidal rating GLXMA ([7]; rate 0.016 kg/ha): 8.1
Postemergence herbicidal rating GLXMA ([7]; rate 0.032 kg/ha): 8.4
Postemergence herbicidal rating IPOHE ([8]; rate 0.016 kg/ha): 8.8
Postemergence herbicidal rating IPOHE ([8]; rate 0.032 kg/ha): 9.0
Postemergence herbicidal rating SETVI ([9]; rate 0.016 kg/ha): 6.4
Postemergence herbicidal rating SETVI ([9]; rate 0.032 kg/ha): 7.5
Postemergence herbicidal rating TRZAW ([10]; rate 0.016 kg/ha): 5.6
Postemergence herbicidal rating TRZAW ([10]; rate 0.032 kg/ha): 6.2
Postemergence herbicidal rating XANST ([11]; rate 0.016 kg/ha): 9.0
Postemergence herbicidal rating XANST ([11]; rate 0.032 kg/ha): 9.0
Postemergence herbicidal rating ZEAMX ([12]; rate 0.016 kg/ha): 7.2
Postemergence herbicidal rating ZEAMX ([12]; rate 0.032 kg/ha): 7.6
Preemergence herbicidal rating ABUTH ([13]; rate 0.125 kg/ha): 9.0
Preemergence herbicidal rating ABUTH ([13]; rate 0.25 kg/ha): 9.0
Preemergence herbicidal rating ALMOY ([14]; rate 0.125 kg/ha): 1.3
Preemergence herbicidal rating ALMOY ([14]; rate 0.25 kg/ha): 2.7
Preemergence herbicidal rating AMBEL ([15]; rate 0.125 kg/ha): 8.9
Preemergence herbicidal rating AMBEL ([15]; rate 0.25 kg/ha): 9.0
Preemergence herbicidal rating CHEAL ([16]; rate 0.125 kg/ha): 9.0
Preemergence herbicidal rating CHEAL ([16]; rate 0.25 kg/ha): 9.0
Preemergence herbicidal rating DIGSA ([17]; rate 0.125 kg/ha): 8.1
Preemergence herbicidal rating DIGSA ([17]; rate 0.25 kg/ha): 8.8
Preemergence herbicidal rating ECHCG ([18]; rate 0.125 kg/ha): 7.5
Preemergence herbicidal rating ECHCG ([18]; rate 0.25 kg/ha): 8.4
Preemergence herbicidal rating GLXMA ([19]; rate 0.125 kg/ha): 8.1
Preemergence herbicidal rating GLXMA ([19]; rate 0.25 kg/ha): 8.8
Preemergence herbicidal rating IPOHE ([20]; rate 0.125 kg/ha): 9.0
Preemergence herbicidal rating IPOHE ([20]; rate 0.25 kg/ha): 9.0
Preemergence herbicidal rating SETVI ([21]; rate 0.125 kg/ha): 5.7
Preemergence herbicidal rating SETVI ([21]; rate 0.25 kg/ha): 7.3
Preemergence herbicidal rating TRZAW ([22]; rate 0.125 kg/ha): 1.3
Preemergence herbicidal rating TRZAW ([22]; rate 0.25 kg/ha): 2.0
Preemergence herbicidal rating XANST ([23]; rate 0.125 kg/ha): 9.0
Preemergence herbicidal rating XANST ([23]; rate 0.25 kg/ha): 9.0
Preemergence herbicidal rating ZEAMX ([24]; rate 0.125 kg/ha): 2.3
Preemergence herbicidal rating ZEAMX ([24]; rate 0.25 kg/ha): 4.3
